Experimental data taken from EP0396405A2, “Cosmetic formulations employing esterified alkoxylated polyol carriers” (ARCO CHEMICAL TECHNOLOGY INC., priority 1989, dated 1990).

System: Hartley albino guinea pigs
Experiment: Guinea pig maximization test (Magnusson and Kligman method), delayed contact hypersensitivity
Type: in vivo
Details: primary challenge
Protocol: The potential of EAP-1 to produce delayed contact hypersensitivity in guinea pigs was evaluated by the Magnusson and Kligman Maximization Test Method.
On day zero, twenty Hartley albino guinea pigs plus ten positive control animals, and ten vehicle control animals each received six intradermal injections, i.e. duplicate injections (0.1 ml;injection) for each of the three test groups: test material (undiluted), formaldehyde (5.0% w/v in distilled water) and acetone, respectively. Each animal also received two intradermal injections of 50% v/v Freund's Complete Adjuvant (FCA) in distilled water and two injections of the respective test or control materials in the FCA/distilled water emulsion.
On day 6, these same groups of animals were exposed topically to a preparation of their respective test (50% w/v in acetone) or control material under ELASTOPLAST@ (a product of Beiersdorf, Inc.) bandage wrappings for approximately 48 hours.
On day 19, all animals were topically challenged at a naive (not previously exposed) skin site using a preparation of their respective test or control material under ELASTOPLAST@ bandage wrappings for approximately 24 hours. Naive control animals were patched identically to and concurrently with the test and positive.
On the day after removal, the sites were depilated. Later that day and again on the next day, the sites were graded for erythema (redness). […]

Compound: C=O [positive control, formaldehyde]
- sensitization classification (positive control group): extreme sensitization
- incidence of grade 1 responses or greater (positive control group (10/10)): 100%
